Test results reported in US10166217B2, “Fungal keratitis prophylactic or therapeutic agent” (SANTEN PHARMACEUTICAL CO., LTD., priority 2015, dated 2019).

Tested on: C. albicans
Assay: Test to evaluate pharmacological effect of rapamycin on animal (rabbit) model of keratomycosis
Type: in vivo, New Zealand white rabbit
Description: Test to evaluate pharmacological effect of rapamycin on animal (rabbit) model of keratomycosis
4% (w/w) rapamycin solution: This sample was prepared by dissolving rapamycin (Chunghwa Chemical Synthesis & Biotech Co., Ltd.) in a solution containing 4% (w/w) ethanol and […] polyethylene glycol 400.
About 10 μL of a C. albicans solution (1×10^4 CFU/mL to 5×10^4 CFU/mL) was administered to the central corneal stroma of the right eye of a male New Zealand white rabbit of about 3 kg, and thereby an animal (rabbit) model of keratomycosis was prepared (Cornea, Volume 26, Number 3, 336-342, April 2007).
For a base administered group (Group 1; N=4), 20 μL of a base (a solution containing 4% (w/w) ethanol and 96% (w/w) polyethylene glycol 400) was administered subconjunctivally on the day of induction.
For a rapamycin administered group (Group 2; N=4), 20 μL of a 4% (w/w) rapamycin solution (0.88 mg rapamycin) was administered subconjunctivally on the day of induction.

Q: What does the source list for `CO[C@H]1C[C@@H]2CC[C@@H](C)[C@@](O)(O2)C(=O)C(=O)N2CCCC[C@H]2C(=O)O[C@H]([C@H](C)C[C@@H]2CC[C@@H](O)[C@H](OC)C2)CC(=O)[C@H](C)/C=C(\C)[C@@H](O)[C@@H](OC)C(=O)[C@H](C)C[C@H](C)/C=C/C=C/C=C/1C` [rapamycin]?
A: clinical scores (McDonald-Shadduck scoring system, slit lamp) (20 μL of 4% (w/w) rapamycin solution (0.88 mg rapamycin), single subconjunctival administration on day of induction, right eye, post-induction days 2 and 5, compared with base administered group, N=4): lower than those of the base administered group; duration for which remarkable therapeutic effect on keratomycosis is maintained (single subconjunctival administration of an injection containing rapamycin, polyethylene glycol and ethanol, rabbit C. albicans keratomycosis model): at least 5 days
